Reference: PMC4696607 (ACS infectious diseases, 2015)

How the values were obtained:
DENV3MTase = DENV3MTase (Dengue virus type 3, UniProt Q6YMS4); test: Competitive SAM binding assay
WNV = test: microbe, parasite or virus in culture; format: cell-based, West Nile virus (WNV); details: West Nile virus, 42 h
DENV-2 = test: microbe, parasite or virus in culture; format: cell-based, Dengue virus (DENV-2); details: Dengue virus, DENV2, A549, 42 h
SLEV = test: organism not typed; format: cell-based, St. Louis encephalitis viruses (SLEV); details: A549, 42 h
JEV = test: microbe, parasite or virus in culture; format: cell-based, Japanese encephalitis virus (JEV); details: Japanese encephalitis virus, A549, 42 h
[1] = system: anthrax lethal factor (LF); details: cited from earlier work
WNV MTase [2] = target: T1, WNV MTase (West Nile virus, UniProt Q9Q6P4); test: 2′-O methylation inhibition assay, WNV MTase
T1 sequence (Q9Q6P4 2529-2794): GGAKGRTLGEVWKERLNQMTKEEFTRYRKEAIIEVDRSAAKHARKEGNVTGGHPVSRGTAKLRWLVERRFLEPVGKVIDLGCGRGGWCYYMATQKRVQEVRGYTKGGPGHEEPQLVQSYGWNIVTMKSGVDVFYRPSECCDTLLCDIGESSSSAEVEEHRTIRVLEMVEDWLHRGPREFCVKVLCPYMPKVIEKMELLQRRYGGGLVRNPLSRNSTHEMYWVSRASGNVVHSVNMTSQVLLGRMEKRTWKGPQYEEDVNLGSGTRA

[3] = system: herpes simplex virus (HSV)-1; details: cited from earlier work
WNV MTase [4] = target: T1, WNV MTase; test: N7 methylation inhibition assay, WNV MTase; details: for IC50: WNV MTase
WEEV = format: cell-based
BHK-21 cells = test: MTT cell proliferation cytotoxicity assay, BHK-21; format: cell-based; details: for CC50 relative to IC50 (fold higher): BHK-21 CC50 vs in vitro IC50; for CC50: BHK-21 cells, MTT, 42 h
VSV = format: cell-based
[5] = cited from earlier work
[6] = IC50 N7, with CHAPS, with CHAPS
[7] = read-out: IC50 2′-O, with CHAPS, WNV MTase, with CHAPS
[8] = read-out: IC50 N7, no CHAPS, no CHAPS

Chain of DENV3MTase (Q6YMS4 2492-2753): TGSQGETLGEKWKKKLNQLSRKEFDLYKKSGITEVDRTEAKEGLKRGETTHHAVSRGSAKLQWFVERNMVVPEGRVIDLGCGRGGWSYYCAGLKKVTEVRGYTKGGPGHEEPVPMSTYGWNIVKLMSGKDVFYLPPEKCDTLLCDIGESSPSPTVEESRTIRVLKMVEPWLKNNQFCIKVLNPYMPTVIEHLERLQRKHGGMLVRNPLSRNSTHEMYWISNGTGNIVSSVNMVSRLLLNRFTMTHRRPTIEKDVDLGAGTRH

| Compound | IC50 (WNV MTase [2]) | IC50 (WNV MTase [4]; IC50 N7, no CHAPS, no CHAPS) | IC50 (WNV MTase [4]; [6]) | IC50 (WNV MTase [2]; [7]) | IC50 (WNV MTase [4]; [8]) | CC50 (BHK-21 cells) | further results |
| --- | --- | --- | --- | --- | --- | --- | --- |
| Cc1cc(N)c2cc(NC(=O)Nc3ccc4nc(C)cc(N)c4c3)ccc2n1 [NSC 12155, aminoquinuride] | 3 µM | 1.4 µM | 0.87 µM |  |  |  | IC50 (DENV3MTase): 1.2 µM; EC50 (WNV): 1 µM; EC50 (DENV-2): 7 µM; EC50 (SLEV): 5.1 µM; EC50 (JEV): 3.1 µM; anthrax lethal factor (LF) activity [1]: inhibited; cell adhesion by HSV-1 [3]: prevent cell adhesion; inhibition of virus growth (WEEV): did not inhibit; CC50 relative to IC50 (fold higher) (BHK-21 cells): 20 fold; inhibition of virus growth (VSV): did not inhibit; binding to glycosaminoglycans [5]: bind to glycosaminoglycans |
| S=C(Nc1ccc2c(c1)Cc1ccccc1-2)Nc1ccc2c(c1)Cc1ccccc1-2 [NSC 23217] | 7.4 µM | 15.7 µM | > 300 µM |  |  |  |  |
| Nc1ccc(-c2ccc(Nc3cc(S(=O)(=O)O)c(N)c4c3C(=O)c3ccccc3C4=O)cc2)c(S(=O)(=O)O)c1 [NSC 125910] | 3.2 µM | 7.6 µM | 17.6 µM |  |  |  | EC50 (WNV): 2.6 µM; CC50 relative to IC50 (fold higher) (BHK-21 cells): 20 fold |
| CC1OC(CC(=O)O)Cc2c1c(O)c1c(O)cc(-c3cc(=O)c4c(=O)c5c(c(=O)c=4c3=O)CC(CC(=O)O)OC5C)c(O)c1c2O (stereo not shown) [NSC 293161] |  |  |  | 54.6 µM | 13.2 µM | 25 µM | IC50 (WNV MTase [4]; read-out: IC50 N7, with CHAPS, with CHAPS): 31 µM |
| Nc1nc(-c2cccc([N+](=O)[O-])c2)cc(-c2cc(-c3cccc([N+](=O)[O-])c3)nc(N)n2)n1 [NSC 371880] |  |  |  | 72 µM | 63 µM | 212 µM |  |
| O=C1C2=C(Nc3cc([N+](=O)[O-])ccc3N2)OC1c1ccc(C2OC3=C(Nc4ccc([N+](=O)[O-])cc4N3)C2=O)cc1 (stereo not shown) [NSC 372295] |  |  |  | 57 µM | 62 µM | 126 µM |  |
| Nc1ncnc2c1ncn2[C@@H]1O[C@H](C[C@@H](N)CC[C@H](N)C(=O)O)[C@@H](O)[C@H]1O [SIN, sinefungin, reference compound] |  |  |  |  |  |  | effect of CHAPS on inhibition activity (WNV MTase [4]; N7 inhibition with detergent CHAPS): not affected at all; inhibition at 150 µM (WNV MTase [4]; read-out: inhibition of N7 activity of the WNV MTase): ~80% |
